Laboratory results: ChEMBL document CHEMBL1138138, “Piperazinyl oxime ethers as NK-1 receptor antagonists” (Bioorg Med Chem Lett, 2006)

Tests used:
[1] = molecular target: T1, Substance-P receptor (Homo sapiens, UniProt P25103); assay: Effect on IP3 turnover by phospholipaseC positively linked to human NK1 receptor expressed in CHO cells; format: functional, cell-based; conditions: read-out: pA2 (converted)
[2] = system: Gerbil, jird; assay: Inhibition of GR-73632 induced foot tapping in po dosed gerbils; format: functional; conditions: Meriones
[3] = molecular target: T1, Substance-P receptor; assay: Displacement of [3H] labelled Substance P from cloned human NK1 receptor expressed in CHO cells; format: cell-based

T1 sequence (P25103 whole entry): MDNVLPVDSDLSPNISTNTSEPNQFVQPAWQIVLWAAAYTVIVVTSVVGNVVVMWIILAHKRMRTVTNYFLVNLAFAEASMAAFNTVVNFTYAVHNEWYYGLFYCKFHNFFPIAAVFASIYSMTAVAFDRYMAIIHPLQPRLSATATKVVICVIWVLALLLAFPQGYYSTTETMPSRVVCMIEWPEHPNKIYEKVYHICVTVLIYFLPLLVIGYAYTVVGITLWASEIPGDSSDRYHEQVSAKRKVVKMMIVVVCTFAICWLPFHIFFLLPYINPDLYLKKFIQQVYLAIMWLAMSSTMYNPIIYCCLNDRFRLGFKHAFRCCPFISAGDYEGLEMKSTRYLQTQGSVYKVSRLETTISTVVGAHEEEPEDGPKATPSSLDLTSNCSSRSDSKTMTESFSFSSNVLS

Kb [1] [nM]	Ki [3] [nM]	SMILES	ED50 [2] [mg/kg]
1	0.2	C/C(CCN1CCN(C(=O)c2cc(C(F)(F)F)cc(C(F)(F)F)c2)[C@H](Cc2c[nH]c3ccccc23)C1)=N/OCCCN1CCOCC1	5.5
0.631	1.26	O=C(c1cc(C(F)(F)F)cc(C(F)(F)F)c1)N1CCN(C/C=N\OCCCN2CCOCC2)C[C@H]1Cc1c[nH]c2ccccc12	2.3
1.58	1.58	C/C(CN1CCN(C(=O)c2cc(C(F)(F)F)cc(C(F)(F)F)c2)[C@H](Cc2c[nH]c3ccccc23)C1)=N/OCCN1CCN(C)CC1	> 10
1.26	–	COc1ccccc1CNCCNC(=O)N1CCN(C(=O)c2cc(C(F)(F)F)cc(C(F)(F)F)c2)[C@H](Cc2c[nH]c3ccccc23)C1	> 10
0.158	10	C/C(CN1CCN(C(=O)c2cc(C(F)(F)F)cc(C(F)(F)F)c2)[C@H](Cc2c[nH]c3ccccc23)C1)=N/OCCN1CCOCC1	1.3
0.631	1.26	O=C(c1cc(C(F)(F)F)cc(C(F)(F)F)c1)N1CCN(C/C=N\OCCN2CCOCC2)C[C@H]1Cc1c[nH]c2ccccc12	2
5.01	6.31	C/C(CN1CCN(C(=O)c2cc(C(F)(F)F)cc(C(F)(F)F)c2)[C@H](Cc2c[nH]c3ccccc23)C1)=N/OCC(C)(C)N1CCOCC1	–
0.316	2	CNCCO/N=C(/C)CN1CCN(C(=O)c2cc(C(F)(F)F)cc(C(F)(F)F)c2)[C@H](Cc2c[nH]c3ccccc23)C1	> 10
0.158	0.794	C/C(CN1CCN(C(=O)c2cc(C(F)(F)F)cc(C(F)(F)F)c2)[C@H](Cc2c[nH]c3ccccc23)C1)=N/OCCN	> 10
0.1	2.51	C/C(CN1CCN(C(=O)c2cc(C(F)(F)F)cc(C(F)(F)F)c2)[C@H](Cc2c[nH]c3ccccc23)C1)=N/OCCN1CCS(=O)(=O)CC1	> 10
7.94	0.794	C/C(CN1CCN(C(=O)c2cc(C(F)(F)F)cc(C(F)(F)F)c2)[C@H](Cc2c[nH]c3ccccc23)C1)=N/OCCN(C)C	> 10
3.16	20	O=C(c1cc(C(F)(F)F)cc(C(F)(F)F)c1)N1CCN(C/C(=N\OCCN2CCOCC2)c2ccccc2)C[C@H]1Cc1c[nH]c2ccccc12	–
1.26	0.398	C/C(CCN1CCN(C(=O)c2cc(C(F)(F)F)cc(C(F)(F)F)c2)[C@H](Cc2c[nH]c3ccccc23)C1)=N/OCCN1CCOCC1	2
2	3.16	C/C(CN1CCN(C(=O)c2cc(C(F)(F)F)cc(C(F)(F)F)c2)[C@H](Cc2c[nH]c3ccccc23)C1)=N/OCC(C)N1CCOCC1 (stereo not given in full)	2.6
1.26	6.31	C/C(CN1CCN(C(=O)c2cc(C(F)(F)F)cc(C(F)(F)F)c2)[C@H](Cc2c[nH]c3ccccc23)C1)=N/OCCN1CCSCC1	10
0.631	2.51	O=C(c1cc(C(F)(F)F)cc(C(F)(F)F)c1)N1CCN(CC2=NOC(CN3CCOCC3)C2)C[C@H]1Cc1c[nH]c2ccccc12 (stereo not given in full)	6.4
7.94	3.98	CO/N=C(/C)CN1CCN(C(=O)c2cc(C(F)(F)F)cc(C(F)(F)F)c2)[C@H](Cc2c[nH]c3ccccc23)C1	–
0.158	12.6	C/C(CN1CCN(C(=O)c2cc(C(F)(F)F)cc(C(F)(F)F)c2)[C@H](Cc2c[nH]c3ccccc23)C1)=N/OCCCN1CCOCC1	7.4
0.794	12.6	O=C(c1cc(C(F)(F)F)cc(C(F)(F)F)c1)N1CCN(Cc2cc(CN3CCOCC3)on2)C[C@H]1Cc1c[nH]c2ccccc12	4.6
1.26	10	C/C(CN1CCN(C(=O)c2cc(C(F)(F)F)cc(C(F)(F)F)c2)[C@H](Cc2c[nH]c3ccccc23)C1)=N/OCc1ccccn1	4.1
1.58	1.26	C/C(CCCN1CCN(C(=O)c2cc(C(F)(F)F)cc(C(F)(F)F)c2)[C@H](Cc2c[nH]c3ccccc23)C1)=N/OCCN1CCOCC1	2
1.26	10	O=C(c1cc(C(F)(F)F)cc(C(F)(F)F)c1)N1CCN(CC/C(=N\OCCN2CCOCC2)c2ccccc2)C[C@H]1Cc1c[nH]c2ccccc12	> 10
1.26	6.31	O=C(c1cc(C(F)(F)F)cc(C(F)(F)F)c1)N1CCN(C/C(=N\OCCCN2CCOCC2)c2ccccc2)C[C@H]1Cc1c[nH]c2ccccc12	> 10
